Experiments:
[1] = molecular target: T1, 5HT1A receptors of isolated membranes of rat brain (Rattus norvegicus, UniProt P19327); experiment: Binding to 5HT1A receptors, shifting of [3H]8-OH-DPAT; settings: 100 nmol/l mesulergine
T1 construct: isolated membranes of rat brain; from tissue; host or cells: rat brain membranes
T1 sequence (P19327 1-422): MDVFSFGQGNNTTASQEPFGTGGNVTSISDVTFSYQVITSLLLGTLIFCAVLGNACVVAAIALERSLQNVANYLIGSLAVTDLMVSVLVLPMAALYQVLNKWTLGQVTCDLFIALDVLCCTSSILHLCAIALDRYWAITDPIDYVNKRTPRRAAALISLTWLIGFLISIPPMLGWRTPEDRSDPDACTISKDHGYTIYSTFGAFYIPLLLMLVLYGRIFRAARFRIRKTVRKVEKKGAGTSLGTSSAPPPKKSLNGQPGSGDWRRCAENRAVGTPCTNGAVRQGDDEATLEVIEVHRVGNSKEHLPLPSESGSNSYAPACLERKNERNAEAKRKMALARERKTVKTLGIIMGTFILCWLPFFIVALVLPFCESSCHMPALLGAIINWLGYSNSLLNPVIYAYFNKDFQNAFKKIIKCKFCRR

[2] = tested on: saphenous vein rings of rabbits; experiment: Vascular contractile response of isolated saphenous vein rings; set-up: species or system rabbits (new Zealand); settings: rabbit saphenous vein rings, percent of the maximum effect induced by serotonine at 1 μmol/l
Method: (§1) 24 hours after a treatment with guanethidine (20 mg/kg, sc), the male Wistar rats (220-250 g) are anaesthetized with sodic pentobarbital (60 mg/kg, ip). The two back legs are shaved. After a cut in the upper part of the thigh, the saphenous nerve is cleared, cut, placed on a platinum electrode and immersed in a drop of paraffin oil. Only the electrode placed on the right leg is connected to a stimulator. This latter represents the “stimulated” leg by contrast to the “sham” left leg. The product (at a dosage of 5 μg/kg) or the corresponding solvent (NaCl 9 ‰-DMSO) are administrated via the jugular vein, 15 minutes before the electrical stimulation (ES). A plasmatic marker, Evans Blue (20 mg/kg iv) is administered through the penis vein 5 minutes before the ES. The saphenous nerve is stimulated according to the following conditions: 3V; 5 Hz; 1 ms; 5 minutes (Harvard stimulator). […] The Evans Blue is measured in the plasma and after extraction of the skin biopsies by a spectrophotometrical method, at 620 nm. […] The vascular contractile response has been measured with saphenous vein rings of rabbits (new Zealand, 2.5 to 3 kg) bound to a sensor, installed in organs baths (EMKA Technologies), containing a physiological Krebs-Henseileit solution. […] The vasoconstrictive effect of the molecules with increasing concentrations is evaluated with saphenous vein rings contracted in an intermediate manner with 40 mmol/l KCl and treated with 0.5 μmol/l pargyline, an inhibitor of monoamine oxydase. The results are expressed as percent of the maximum effect induced by serotonine at 1 μmol/l. […] The binding on the 5HT1B/5HT1D receptors of isolated membranes of bovine nuclear caudal has been measured by measuring the shifting of 5 nmoml/l of [^3H]5-carboxamidotryptamine by increasing concentrations of the molecule in the presence of 100 nmol/l of 8-OH-dipropylaminotetralin (8-OH-DPAT) in order to mask the 5HT1A receptors and in the presence of 100 nM of mesulergine in order to mask the 5HT2 receptors.

[3] = tested on: inflammation induced by the stimulation of the saphenous nerve; experiment: Inhibition of neurogenic inflammation (plasmatic extravasation) induced by electrical stimulation of the saphenous nerve; type: in vivo, male Wistar rats; settings: rat, 15 minutes before electrical stimulation of the saphenous nerve, Evans Blue extravasation
Method: The results of the pharmacological studies are given below. • 1. The inhibitory power of the molecules on inflammation induced by the stimulation of the saphenous nerve has been measured at follows 24 hours after a treatment with guanethidine (20 mg/kg, sc), the male Wistar rats (220-250 g) are anaesthetized with sodic pentobarbital (60 mg/kg, ip). The two back legs are shaved. After a cut in the upper part of the thigh, the saphenous nerve is cleared, cut, placed on a platinum electrode and immersed in a drop of paraffin oil. Only the electrode placed on the right leg is connected to a stimulator. This latter represents the “stimulated” leg by contrast to the “sham” left leg. The product (at a dosage of 5 μg/kg) or the corresponding solvent (NaCl 9 ‰-DMSO) are administrated via the jugular vein, 15 minutes before the electrical stimulation (ES). A plasmatic marker, Evans Blue (20 mg/kg iv) is administered through the penis vein 5 minutes before the ES. The saphenous nerve is stimulated according to the following conditions: 3V; 5 Hz; 1 ms; 5 minutes (Harvard stimulator). At the end of the ES, a blood sample is realized by cardiac puncture and the skin of the edema of each leg (visualized by the extravasation of the Evans Blue) is sampled and weighted later. The animals are killed by anaesthetical overdose. The blood samples are centrifuged (3,000 rotations/minute, during 15 minutes). […] The Evans Blue is measured in the plasma and after extraction of the skin biopsies by a spectrophotometrical method, at 620 nm. […] The vascular contractile response has been measured with saphenous vein rings of rabbits (new Zealand, 2.5 to 3 kg) bound to a sensor, installed in organs baths (EMKA Technologies), containing a physiological Krebs-[…] solution. […] The vasoconstrictive effect of the molecules with increasing concentrations is evaluated with saphenous vein rings contracted in an intermediate manner with 40 mmol/l KCl and treated with 0.5 μmol/l pargyline, an inhibitor of monoamine oxydase. The results are expressed as percent of the maximum effect induced by serotonine at 1 μmol/l. […]

[4] = molecular target: 5HT1B/5HT1D receptors of isolated membranes of bovine nuclear caudal; experiment: Binding on 5HT1B/5HT1D receptors, shifting of [3H]5-carboxamidotryptamine; settings: 100 nmol/l 8-OH-DPAT and 100 nM mesulergine
Method: as §1

IC50 [1]	IC50 [4]	melting point	SMILES	Contraction. Saph. Vein 10^−6 mol/l (%) [2]	Neuro. Inf. Inhib. (%) 5 μg/kg iv [3]
30 µM	10 µM		c1ccc(Oc2ccc3[nH]c4c(c3c2)CNCC4)cc1 [Example 1, 8-Phenoxy-2,3,4,5-tetrahydro-1H-pyrido[4,3-b]indole]	0%	65%
> 10 µM	> 10 µM	102.3 °C	c1ccc(CN2CCc3[nH]c4ccc(Oc5ccccc5)cc4c3C2)cc1 [Example 2, 8-Phenoxy-N-benzyl-2,3,4,5-tetrahydro-1H-pyrido[4,3-b]indole]	0%	60%
> 5 µM	> 5 µM		Cl.c1ccc(CN2CCc3[nH]c4ccc(Oc5ccccc5)cc4c3C2)cc1 [Example 3, 8-Phenoxy-N-benzyl-2,3,4,5-tetrahydro-5H-pyridinium[4,3-b]indole-hydrochloride]	0%	80%

From patent US20080280941A1, “8-Phenoxy-Gamma Carboline Derivatives” (priority 2004, published 2008)
